This note sets out measurements from ChEMBL document CHEMBL5154921, “Discovery and Characterization of the First Nonpeptide Antagonists for the Relaxin-3/RXFP3 System” (J Med Chem, 2022).

Active and inactive are the calls of the source. No cut-off for these calls is given here. A value given as a limit tells only on which side of the number the result lay.

For experiment [1], the target named is T1, Relaxin-3 receptor 1 (Homo sapiens, UniProt Q9NSD7).
T1 sequence (Q9NSD7 whole entry): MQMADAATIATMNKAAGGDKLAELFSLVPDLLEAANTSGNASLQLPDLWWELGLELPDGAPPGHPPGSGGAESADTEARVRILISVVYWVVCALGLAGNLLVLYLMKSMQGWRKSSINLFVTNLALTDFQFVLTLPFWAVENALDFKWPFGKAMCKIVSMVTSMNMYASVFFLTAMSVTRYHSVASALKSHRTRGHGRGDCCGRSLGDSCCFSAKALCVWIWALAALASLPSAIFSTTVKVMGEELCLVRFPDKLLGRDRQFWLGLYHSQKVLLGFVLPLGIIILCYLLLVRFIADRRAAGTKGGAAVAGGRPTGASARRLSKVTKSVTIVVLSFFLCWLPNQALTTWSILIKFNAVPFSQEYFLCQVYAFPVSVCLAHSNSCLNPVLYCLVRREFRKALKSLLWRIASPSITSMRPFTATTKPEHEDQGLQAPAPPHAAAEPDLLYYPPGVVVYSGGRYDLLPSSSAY
The experiment can be described thus: Antagonist activity at human RXFP3 expressed in CHO-K1 cells assessed as [35S]GTPgammaS binding incubated for 1 hr by [35S]GTP-gammaS binding assay. Format: functional, cell-based. On the technique in general: GTPγS resists hydrolysis and so accumulates on activated G proteins.

Experiment [2] concerns the target Relaxin receptor 1 (Homo sapiens) (UniProt Q9HBX9). The experiment can be described thus: Antagonist activity at human RXFP1 receptor expressed in CHO-K1 cells assessed as cAMP production at 10 to 30 uM in presence of relaxin-3 incubated for 30 mins by TR-FRET assay. Format: functional, cell-based. Particulars: filed as antagonist, dose 10-30 µM.
For experiment [3], the target named is T1, Relaxin-3 receptor 1. In words: Antagonist activity at human RXFP3 expressed in CHO-K1 cells assessed as forskolin-induced cAMP accumulation measured after 30 mins in presence of relaxin-3 by TR-FRET assay. Format: functional, cell-based.
For experiment [4], the target named is T1, Relaxin-3 receptor 1. The experiment can be described thus: Antagonist activity at human RXFP3 expressed in CHO-K1 cells assessed as inhibition of relaxin-3 stimulated ERK1/2 phosphorylation preincubated for 15 mins followed by relaxin-3 addition for 5 mins. Format: functional, cell-based.
Experiment [5] deals with T1, Relaxin-3 receptor 1.

Chain of Relaxin receptor 1 (Homo sapiens) (Q9HBX9 whole entry): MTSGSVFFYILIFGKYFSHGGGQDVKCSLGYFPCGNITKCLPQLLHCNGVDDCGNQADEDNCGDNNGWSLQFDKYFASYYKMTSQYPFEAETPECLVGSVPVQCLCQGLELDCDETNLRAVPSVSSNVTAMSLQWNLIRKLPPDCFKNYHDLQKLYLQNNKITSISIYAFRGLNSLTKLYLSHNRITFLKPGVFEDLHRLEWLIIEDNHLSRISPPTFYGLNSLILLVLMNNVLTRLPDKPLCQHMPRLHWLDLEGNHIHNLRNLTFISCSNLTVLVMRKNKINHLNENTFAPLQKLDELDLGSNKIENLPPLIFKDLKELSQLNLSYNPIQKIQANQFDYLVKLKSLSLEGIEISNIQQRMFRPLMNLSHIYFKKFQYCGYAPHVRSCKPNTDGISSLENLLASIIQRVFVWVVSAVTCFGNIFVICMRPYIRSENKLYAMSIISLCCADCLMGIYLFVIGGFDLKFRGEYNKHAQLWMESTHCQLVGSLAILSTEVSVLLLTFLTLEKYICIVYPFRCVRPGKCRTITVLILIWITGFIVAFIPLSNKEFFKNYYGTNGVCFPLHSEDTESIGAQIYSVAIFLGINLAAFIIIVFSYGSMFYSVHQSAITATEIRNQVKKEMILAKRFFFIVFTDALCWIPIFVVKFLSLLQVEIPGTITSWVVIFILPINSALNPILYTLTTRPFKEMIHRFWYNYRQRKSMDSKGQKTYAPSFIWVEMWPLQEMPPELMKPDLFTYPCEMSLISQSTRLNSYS

`O=C(Nc1ccc(-c2nc(-c3ccc(Cl)cc3)no2)cc1)C1CC(=O)N(Cc2cccnc2)C1` (stereo not given): the IC50 – broadly, the concentration that inhibits the measured activity by half – on Relaxin-3 receptor 1 [1] is 3.04 µM. For the same molecule, the result in experiment [2] was Active. On to `Cc1ccc(-c2noc(-c3ccc(NC(=O)C4CC(=O)N(CCc5ccccc5)C4)cc3)n2)cc1` (stereo not given), for which the IC50 on Relaxin-3 receptor 1 [3] was over 10 µM.

For `Cc1ccc(-c2noc(-c3ccc(NC(=O)C4CC(=O)N(Cc5cccc(F)c5)C4)cc3)n2)cc1` (stereo not given), the IC50 on Relaxin-3 receptor 1 [3] is over 10 µM. Consider `Cc1ccc(-c2noc(-c3ccc(NC(=O)C4CC(=O)N(Cc5ccccn5)C4)cc3)n2)cc1` (stereo not given), for which the IC50 at Relaxin-3 receptor 1 [3] is over 10 µM. In the case of `Cc1ccc(-c2noc(-c3ccc(NC(=O)C4CC(=O)N(Cc5ccccc5F)C4)cc3)n2)cc1` (stereo not given), the IC50 on Relaxin-3 receptor 1 [3] is over 10 µM. For H-RAAPYGVRLSGREFIRAVIFTSR-NH2, the IC50 amounted to 0.504 µM on Relaxin-3 receptor 1 [3] and 7.82 µM at Relaxin-3 receptor 1 [4]. Moreover, the Ki – broadly, a dissociation constant, usually derived from enzyme kinetics or from competition with a known ligand – on Relaxin-3 receptor 1 [5] worked out at 0.0111 µM. On to `Cc1ccc(-c2noc(-c3ccc(NC(=O)C4CC(=O)N(Cc5cccnc5)C4)cc3)n2)cc1` (stereo not given), for which the concentration for half-maximal inhibition (IC50) at Relaxin-3 receptor 1 [3] is 2.12 µM.
